Experimental data from US10093713B2, “GIP-GLP-1 dual agonist compounds and methods” (priority 2013, dated 2018).
Like-named read-outs stand apart in the source and are kept apart here. Blank lines part the entries; values can stand above or below the compound they belong to. *1 amine or outer side, *2 acyl side, *3 side chain or, on linkers, in order; H or OH if unused. Where a SMILES comes first, the peptide text is derived from it. Side-chain parts run from the residue outwards. [ ]: non-standard residue; d: D form. The star is where a group is joined. C20 diacid = O=C(O)CCCCCCCCCCCCCCCCCCC(=O)*; γGlu = O=C(O)[C@H](CCC(=O)[*:2])N[*:1]; AEEA = NCCOCCOCC(=O)O; Aib = CC(C)(N)C(=O)O

How the values were obtained:
[1] = molecular target: T1, human GIP R (Homo sapiens, UniProt P48546); experiment: Human GIP receptor (GIP R) activity assay, cAMP induction (AlphaScreen) in HEK293 cells; assay type: cell-based; details: read-out: hGIP-R cAMP EC50 average value
T1 construct: expressed in transfected cells
T1 sequence (P48546 22-466): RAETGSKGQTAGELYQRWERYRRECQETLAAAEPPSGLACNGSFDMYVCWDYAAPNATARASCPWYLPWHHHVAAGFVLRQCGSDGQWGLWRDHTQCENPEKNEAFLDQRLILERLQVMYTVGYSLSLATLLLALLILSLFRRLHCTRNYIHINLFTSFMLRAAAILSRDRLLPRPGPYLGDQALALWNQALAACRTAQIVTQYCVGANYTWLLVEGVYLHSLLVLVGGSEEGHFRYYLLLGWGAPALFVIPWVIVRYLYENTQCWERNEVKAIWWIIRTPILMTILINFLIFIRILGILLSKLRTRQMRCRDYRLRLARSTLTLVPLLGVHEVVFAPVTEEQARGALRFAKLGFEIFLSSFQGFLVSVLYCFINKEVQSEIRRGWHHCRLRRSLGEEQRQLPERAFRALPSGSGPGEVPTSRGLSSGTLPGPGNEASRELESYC
Protocol: (§1) Human GIP Receptor (GIP R) and GLP-1 Receptor (GLP-1 R) Activity Assay
(§2) In vitro effects of peptide conjugates of the invention were assessed by measuring the induction of cAMP following stimulation of the respective receptor by GIP, GLP1 or analogues of these, as outlined in the invention, using the AlphaSceen® cAMP kit from Perkin-Elmer according to instructions. Briefly, HEK293 cells expressing the human GIP R or GLP-1 R (stable cell lines generated through transfection of the cDNA for human GIP R or GLP-1 and selection of stable clones) were seeded at 30,000 cells/well in 96-well microtiter plates coated with 0.01% poly-L-lysine, and grown for 1 day in culture in 200 μl growth medium (DMEM, 10% FCS, Penicillin (100 IU/ml), Streptomycin (100 μg/ml)). On the day of analysis, growth medium was removed and the cells were washed once with […] Tyrode's buffer (Tyrode's Salts (9.6 g/l), 10 mM HEPES, pH 7.4). […] The Assay buffer was removed and cells are lysed in 80 μl Lysis buffer (0.1% w/v BSA, 5 mM HEPES, 0.3% v/v Tween-20) per well. From each well 10 μl lysed cells was transferred to a 384-well plate and mixed with 15 μl bead-mix (1 Unit/15 μl anti-cAMP Acceptor Beads, 1 Unit/15 μl Donor Beads, and 1 Unit/15 μl Biotinylated cAMP in Assay Buffer). The plates were mixed and incubated in the dark for an hour at room temperature before measuring using an Envision™ plate reader (Perkin-Elmer).
(§3) The resulting cAMP curves were plotted as absolute cAMP concentrations (nM) over log (test compound concentration) and analyzed using the curve fitting program XLfit.
(§4) Parameters calculated to describe both the potency as well as the agonistic activity of each test compound on the receptors were:
(§5) EC50, a concentration resulting in a half-maximal elevation of cAMP levels, reflecting the potency of the test compound.

[2] = molecular target: T2, human GLP-1 R (Homo sapiens, UniProt P43220); experiment: Human GLP-1 receptor (GLP-1 R) activity assay, cAMP induction (AlphaScreen) in HEK293 cells; assay type: cell-based
T2 construct: expressed in transfected cells
Protocol: as §1, §2, §3, §4, §5

T2 sequence (P43220 24-463): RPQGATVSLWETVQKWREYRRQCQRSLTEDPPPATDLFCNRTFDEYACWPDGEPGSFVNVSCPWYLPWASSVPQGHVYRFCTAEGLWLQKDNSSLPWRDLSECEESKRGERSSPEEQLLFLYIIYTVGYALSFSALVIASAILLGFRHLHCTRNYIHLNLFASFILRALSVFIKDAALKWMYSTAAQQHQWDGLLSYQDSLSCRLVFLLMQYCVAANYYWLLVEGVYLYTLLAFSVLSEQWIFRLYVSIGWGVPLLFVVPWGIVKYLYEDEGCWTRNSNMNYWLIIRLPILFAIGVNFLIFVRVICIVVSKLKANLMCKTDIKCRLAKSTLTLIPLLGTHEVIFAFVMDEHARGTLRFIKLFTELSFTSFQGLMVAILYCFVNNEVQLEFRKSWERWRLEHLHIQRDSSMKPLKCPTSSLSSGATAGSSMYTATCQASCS

EC50 ([1]; Table 2, HEK293 cells expressing human GIP R): 0.025 nM
EC50 ([2]; Table 2, HEK293 cells expressing human GLP-1 R, read-out: hGLP1-R cAMP EC50 average value): 0.033 nM
Structure (SMILES): CC[C@H](C)[C@H](NC(=O)[C@H](CO)NC(=O)[C@H](Cc1ccc(O)cc1)NC(=O)[C@H](CC(=O)O)NC(=O)[C@H](CO)NC(=O)[C@@H](NC(=O)[C@H](Cc1ccccc1)NC(=O)[C@@H](NC(=O)CNC(=O)[C@H](CCC(=O)O)NC(=O)C(C)(C)NC(=O)[C@@H](N)Cc1ccc(O)cc1)[C@@H](C)O)[C@@H](C)O)C(=O)N[C@@H](Cc1ccc(O)cc1)C(=O)N[C@@H](CC(C)C)C(=O)N[C@@H](CCC(=O)O)C(=O)N[C@@H](CCCCN)C(=O)N[C@@H](CCCCNC(=O)COCCOCCNC(=O)COCCOCCNC(=O)CC[C@H](NC(=O)CCCCCCCCCCCCCCCCCCC(=O)O)C(=O)O)C(=O)N[C@@H](C)C(=O)N[C@@H](CCC(N)=O)C(=O)N[C@@H](CCCNC(=N)N)C(=O)N[C@@H](C)C(=O)N[C@@H](Cc1ccccc1)C(=O)N[C@H](C(=O)N[C@@H](CCC(=O)O)C(=O)N[C@@H](Cc1c[nH]c2ccccc12)C(=O)N[C@@H](CC(C)C)C(=O)N[C@@H](CC(C)C)C(=O)N[C@@H](CCCNC(=N)N)C(=O)N[C@@H](C)C(N)=O)C(C)C [Compound 29] (H-Y[Aib]EGTFTSDYSIYLEKK([AEEA-AEEA-γGlu-C20 diacid])AQRAFVEWLLRA-NH2)

Structure (SMILES): CC[C@H](C)[C@H](NC(=O)[C@H](CO)NC(=O)[C@H](Cc1ccc(O)cc1)NC(=O)[C@H](CC(=O)O)NC(=O)[C@H](CO)NC(=O)[C@@H](NC(=O)[C@H](Cc1ccccc1)NC(=O)[C@@H](NC(=O)CNC(=O)[C@H](CCC(=O)O)NC(=O)C(C)(C)NC(=O)[C@@H](N)Cc1ccc(O)cc1)[C@@H](C)O)[C@@H](C)O)C(=O)N[C@@H](Cc1ccc(O)cc1)C(=O)N[C@@H](CC(C)C)C(=O)N[C@@H](CC(=O)O)C(=O)N[C@@H](CCCCN)C(=O)N[C@@H](CCCCNC(=O)CC[C@H](NC(=O)CCCCCCCCCCCCCCCCCCC(=O)O)C(=O)O)C(=O)N[C@@H](C)C(=O)N[C@@H](CCC(N)=O)C(=O)N[C@@H](CCCNC(=N)N)C(=O)N[C@@H](C)C(=O)N[C@@H](Cc1ccccc1)C(=O)N[C@H](C(=O)N[C@@H](CCC(=O)O)C(=O)N[C@@H](Cc1c[nH]c2ccccc12)C(=O)N[C@@H](CC(C)C)C(=O)N[C@@H](CC(C)C)C(=O)N[C@@H](C)C(=O)N[C@@H](CCC(N)=O)C(=O)NCC(=O)N1CCC[C@H]1C(=O)N[C@@H](CO)C(=O)N[C@@H](CO)C(=O)NCC(=O)N[C@@H](C)C(=O)N1CCC[C@H]1C(=O)N1CCC[C@H]1C(=O)N1CCC[C@H]1C(=O)N[C@@H](CO)C(N)=O)C(C)C [Compound 36] (H-Y[Aib]EGTFTSDYSIYLDKK([γGlu-C20 diacid])AQRAFVEWLLAQGPSSGAPPPS-NH2)
EC50 ([1]; Table 3, most comprehensive data): 0.01 nM
EC50 ([2]; Table 3, most comprehensive data, read-out: hGLP-1-R cAMP EC50 average value): 0.015 nM

Structure (SMILES): CC[C@H](C)[C@H](NC(=O)[C@H](CO)NC(=O)[C@H](Cc1ccc(O)cc1)NC(=O)[C@H](CC(=O)O)NC(=O)[C@H](CO)NC(=O)[C@@H](NC(=O)[C@H](Cc1ccccc1)NC(=O)[C@@H](NC(=O)CNC(=O)[C@H](CCC(=O)O)NC(=O)C(C)(C)NC(=O)[C@@H](N)Cc1ccc(O)cc1)[C@@H](C)O)[C@@H](C)O)C(=O)N[C@@H](C)C(=O)N[C@@H](CC(C)C)C(=O)N[C@@H](CC(=O)O)C(=O)N[C@@H](CCCCN)C(=O)N[C@@H](CCCCNC(=O)COCCOCCNC(=O)COCCOCCNC(=O)CC[C@H](NC(=O)CCCCCCCCCCCCCCCCC(=O)O)C(=O)O)C(=O)N[C@@H](C)C(=O)N[C@@H](CCC(N)=O)C(=O)N[C@@H](CCCNC(=N)N)C(=O)N[C@@H](C)C(=O)N[C@@H](Cc1ccccc1)C(=O)N[C@H](C(=O)N[C@@H](CC(N)=O)C(=O)N[C@@H](Cc1c[nH]c2ccccc12)C(=O)N[C@@H](CC(C)C)C(=O)N[C@H](C(=O)N[C@@H](C)C(=O)NC(C)(C)C(=O)N[C@@H](CCCCN)C(=O)N1CCC[C@H]1C(=O)N[C@@H](CO)C(=O)N[C@@H](CO)C(=O)NCC(=O)N[C@@H](C)C(=O)N1CCC[C@H]1C(=O)N1CCC[C@H]1C(=O)N1CCC[C@H]1C(=O)N[C@@H](CO)C(N)=O)C(C)C)C(C)C [Compound 15]
EC50 ([1]; Table 2a, secondary assay study): 0.006 nM
EC50 ([2]; Table 2a, secondary assay study, read-out: hGLP1-R cAMP EC50 average value): 0.008 nM
